Experimental findings from patent publication US8871799B2, “Iminochromene anti-viral compounds” (priority 2010, dated 2014) are described below.

In one assay the test system is HCV2a virus. Kind of assay: HCV IF antiviral assay (HCV inhibition assay). Type of assay: cell-based, Hepatitis C virus. The note with it: for Number HCV infected cells: Huh7 cells, 80 infected cells at 0 μM.
Assay [1] has as its system Murine Encephalomyocarditis virus (EMCV). Kind of assay: EMCV antiviral assay (MTS cell viability). The conditions noted are these: Huh7 cells, 250 pfu EMCV, negative controls ~0.7-0.75.
In a further assay the test system is HCV. In words: HCV RNA release by Huh7 cells. The format is cell-based, Hepatitis C virus. The conditions noted are these: control level 100% in the absence of drug.

As for `COc1ccc(/N=c2\oc3ccc(Cl)cc3cc2C(N)=S)cc1` [KIN700], in the assay with HCV2a virus (0, 5 μM, 10 μM and 50 μM), the “Change in number of HCV-infected cells with increasing concentration” value is “dose-dependent decrease”. Further, the “Number HCV infected cells” value stood at 25 in the assay with HCV2a virus (KIN700 added 5 μM), 13 with HCV2a virus (KIN700 added 10 μM) and 13 with HCV2a virus (KIN700 added 50 μM). The Cell viability post-infection in assay [1] (5 μM) is roughly 0.8; in assay [1] (10 μM), roughly 1.5; in assay [1] (20 μM), roughly 1.7. Besides, the “Level of HCV RNA in supernatant” value with HCV (KIN700 at 10 μM) is recorded as “less than 10%”.
Turning to interferon [reference compound], in the assay on HCV2a virus (positive control, representative experiments), the “HCV infection with positive control treatment” value is on record as “completely blocks HCV infection”. Moreover, the “Level of HCV RNA in supernatant” value with HCV (Interferon sample) is on record as “less than 5%”.
